We go through three compounds from patent US20070112175A1, “Determining drug resistance” (Children's Cancer Institute Australia for Medical Research, priority 2003, published 2007).

SMILES strings stand for the structures.

Assay [1] relates to NIH3T3 mutant γ-actin transfectant cells. Briefly: Drug treatment and α-tubulin immunofluorescence of microtubules. Type of assay: cell-based, mouse. Particulars: 10 μM, 30 min. The protocol: NIH3T3 mutant γ-actin transfectant cells were grown to ˜80% confluency in 4-well chamber slides (Nalge Nunc International, Naperville, Ill.) and treated with either 0.5% DMSO (vehicle control), 10 μM VLB, or 10 μM dEpoB, for 30 min, prior to immunostaining for total α-tubulin using standard methods. Epifluorescence imaging was performed using a Zeiss Axioscope 100 linked to a cooled CCD camera.

In the next assay the test system is CEM/VLB100 cells. Briefly: Resistance of vinblastine-selected subline CEM/VLB100. It counts as cell-based, Human. Conditions: CEM/VLB100 subline of CCRF-CEM. The source says:
(§1) Human T-cell acute lymphoblastic leukaemia cells, CCRF-CEM, and drug resistant sublines, CEM/VCR R (vincristine-selected) and CEM/VLB100 (vinblastine-selected), and CEM/dEpoB 1×, CEM/dEpoB 2×, CEM/dEpoB 4×, CEM/dEpoB 10×(desoxyepothilone B-selected), were maintained in RPMI 1640 containing 10% FCS as suspension cultures. The CEM/VCRR are 22,600-fold and CEM/VLB100 are 6,667-fold resistant to vincristine and vinblastine respectively. Cells were harvested for protein analysis by centrifugation at 1500 rpm for 5 min.

Assay [2] has as its system NIH3T3 mutant γ-actin transfectant cells. The assay can be described thus: Drug resistance clonogenic assay. It counts as cell-based, mouse. Conditions: P<0.05. The protocol:
DNA (1 μg) was transfected into subconfluent NIH3T3 mouse fibroblast cells using the Fugene (Roche) transfection reagent according to the manufacturer's instructions. Stable transfectants were selected in 1 mgm1^−1 G418 for 16 days. Levels of γ-actin expression were determined by immunoblotting as described above.
The ability of mutant γ-actin to confer resistance to antimicrotubule agents was determined using clonogenic assays with slight modifications. NIH3T3 mutant γ-actin transfectant cells were seeded at 100 cells/well in replicate wells of a 24-well dish containing increasing concentrations of VLB. The media was replaced after 3 days with drug-free DME/10%FCS. After a further 4 days the media was removed and colonies stained with 0.1% crystal violet. The densitometric volume of each well was determined using the Quantity One software package (Biorad) and expressed relative to the respective drug-free control cells. The concentration that kills 50% of cells (ID50) and statistical analyses were then performed. The relative resistance was determined by dividing the ID50 of each γ-actin transfectant cell line with the ID50 of the empty vector cells.

Another assay has as its system CEM/VCR R cells. Briefly: Resistance of vincristine-selected subline CEM/VCR R. Type of assay: cell-based, Human. Particulars: CEM/VCR R subline of CCRF-CEM.
From the text: as §1

[3] abbreviates: empty vector and wild type γ-actin expressing cells.

Turning to `C/C1=C/C[C@@H](/C(C)=C/c2csc(C)n2)OC(=O)C[C@H](O)C(C)(C)C(=O)[C@H](C)[C@@H](O)[C@@H](C)CCC1` [dEpoB, Desoxyepothilone B], the “effect on cell shape and microtubule network” value in assay [1] (setting [3]) is reported as “marked structural changes”; in assay [1] (mutant γ-actin transfectants) it was “microtubule network remains largely intact”.
In the case of `CC[C@]1(O)C[C@@H]2CN(CCc3c([nH]c4ccccc34)[C@@](C(=O)OC)(c3cc4c(cc3OC)N(C)[C@H]3[C@@](O)(C(=O)OC)[C@H](OC(C)=O)[C@]5(CC)C=CCN6CC[C@]43[C@@H]65)C2)C1` [vinblastine], the “fold resistant to vinblastine” value in the assay with CEM/VLB100 cells was 6,667 fold. Moreover, the “relative resistance (ID50 transfectant / ID50 empty vector)” value in assay [2] (P98L γ-actin mutant vs empty vector and wildtype γ-actin cells) is on record as “over 3 fold”; in assay [2] (V103L γ-actin mutant vs empty vector and wildtype γ-actin cells), “over 2 fold”. The “effect on cell shape and microtubule network” value in assay [1] (setting [3]) is “marked structural changes”; in assay [1] (mutant γ-actin transfectants), “microtubule network remains largely intact”.
For the compound `CC[C@]1(O)C[C@H]2CN(CCc3c([nH]c4ccccc34)[C@@](C(=O)OC)(c3cc4c(cc3OC)N(C=O)[C@H]3[C@@](O)(C(=O)OC)[C@H](OC(C)=O)[C@]5(CC)C=CCN6CC[C@]43[C@@H]65)C2)C1` [vincristine], in the assay on CEM/VCR R cells, the “fold resistant to vincristine” value was 22,600 fold.
